Like-named read-outs stand apart in the source and are kept apart here.
Tested on: BDNF-induced nuclear Arc expression in primary cortical neurons
Test: Chemogenomic screen: high-content image-based assay of BDNF-induced nuclear Arc expression (96-well)
Type: cell-based, mouse
Experimental: To increase the throughput of our pharmacological screening for modulators of Arc, the above mentioned assay was adapted to cultures of mouse primary cortical neurons in 96-well plates.
All 319 compounds were initially tested at a final concentration of 16.7 µM with three biological replicates.
Screening of compounds in the chemogenomic library was carried out using DIV13 primary forebrain cortical neurons cultured on poly-L-lysine/laminin-coated 96-well plates (Ibidi USA, Madison, WI). Cells were seeded at a density of 30,000 cells per well and treated with the compound library and BDNF according to the experimental design presented in Fig. 3a. After experimental treatment, cells were processed for Arc and acetyl-H3K9 immunocytochemistry according to the protocol described above. Both antigens (Arc and acetyl-H3K9) were imaged using an IN Cell Analyzer 6000 imaging system and a ×40 objective. […] High-throughput quantification of nuclear Arc immunofluorescence signal was performed in a similar fashion than the low-throughput procedure described above but with the exception that acetyl-H3K9 was used as a nuclear mask to guide the automated quantification of nuclear Arc immunofluorescence signal.

[1] = chemogenomic (SMART) screen, BDNF-induced nuclear Arc expression, primary cortical neurons, BDNF control 19.5
[2] = nuclear Arc-positive cells relative to DMSO + BDNF control, negative values = decrease
[3] = BDNF-induced nuclear Arc expression, primary cortical neurons, chemogenomic screen
[4] = nuclear Arc-positive cells relative to DMSO control (BDNF), negative = decrease

Row | SMILES | Percentage of cell with nuclear Arc immunostaining above 2σ threshold [1] | Fold-change — Normalized to DMSO control (BDNF) [2] | other results
1 | CC(=C(CCO)SSCC1CCCO1)N(C=O)Cc1cnc(C)nc1N (stereo in doubt) [Fursultiamine] |  |  | Percentage of cell with nuclear Arc immunostaining above 2σ threshold: 15.4%
2 | CN1CC(=O)NC1=O [1-Methylhydantoin] | 31.8% | 1.6 fold | 
3 | COc1cc(/C=C/C(=O)C(=Cc2ccc(F)c(F)c2)C(=O)/C=C/c2ccc(O)c(OC)c2)ccc1O [3,4-Difluorobenzocurcumin] |  |  | Percentage of cell with nuclear Arc immunostaining above 2σ threshold [3]: 1.4%; Fold-change — Normalized to DMSO control (BDNF) [4]: -14.1 fold
4 | O=c1cc(-c2ccccc2)oc2c(O)c(O)ccc12 [7,8-Dihydroxyflavone] | 32.7% | 1.7 fold | 
5 | CN1CCc2cc3c(cc2[C@H]1[C@@H]1OC(=O)c2c1ccc1c2OCO1)OCO3 [(+)-Bicuculline] |  | 1.1 fold | Percentage of cell with nuclear Arc immunostaining above 2σ threshold: 20.9%
6 | O=C(O[C@@H]1Cc2c(O)cc(O)cc2O[C@@H]1c1cc(O)c(O)c(O)c1)c1cc(O)c(O)c(O)c1 [(-)-Epigallocatechin gallate] | 38.0% | 1.9 fold | 
7 | NC[C@H](CC(=O)O)c1ccc(Cl)cc1 [(R)-Baclofen] | 31.8% | 1.6 fold | 
8 | CC[C@H](C)[C@H](NC(=O)[C@H](CO)NC(=O)[C@@H](NC(=O)[C@@H]1CCCN1C(=O)[C@H](C)NC(=O)[C@@H](N)CC(N)=O)C(C)C)C(=O)N1CCC[C@H]1C(=O)N[C@@H](CCC(N)=O)C(=O)O [AL-108] |  |  | Percentage of cell with nuclear Arc immunostaining above 2σ threshold [3]: 8.6%; Fold-change — Normalized to DMSO control (BDNF) [4]: -2.3 fold
9 | COc1ccc(CNC(=O)Nc2ncc([N+](=O)[O-])s2)cc1 [AR-A014418] |  |  | Percentage of cell with nuclear Arc immunostaining above 2σ threshold [3]: 4.9%; Fold-change — Normalized to DMSO control (BDNF) [4]: -4.0 fold
10 | CC(=O)NCCCS(=O)(=O)O [Acamprosate] |  |  | Percentage of cell with nuclear Arc immunostaining above 2σ threshold: 9.4%
11 | CC(=O)Nc1nnc(S(N)(=O)=O)s1 [Acetazolamide] |  |  | Percentage of cell with nuclear Arc immunostaining above 2σ threshold [3]: 4.9%
12 | COc1ccc2cccc(CCNC(C)=O)c2c1 [Agomelatine] | 17.6% |  | 
13 | NC12CC3CC(CC(C3)C1)C2 [Amantadine] | 32.9% | 1.7 fold | 
14 | CC[N+](CC)(CCNC(=O)C(=O)NCC[N+](CC)(CC)Cc1ccccc1Cl)Cc1ccccc1Cl [Ambenonium] |  |  | Percentage of cell with nuclear Arc immunostaining above 2σ threshold: 15.1%
15 | Cn1c(=O)c2[nH]cnc2n(C)c1=O [Aminophylline] | 23.1% | 1.2 fold | 
16 | CCN1CCCC1CNC(=O)c1cc(S(=O)(=O)CC)c(N)cc1OC (stereo not drawn) [Amisulpride] | 24.6% | 1.3 fold | 
17 | CN(C)CCC=C1c2ccccc2CCc2ccccc21 [Amitriptyline] | 12.3% |  | 
18 | Clc1ccc2c(c1)C(N1CCNCC1)=Nc1ccccc1O2 [Amoxapine] | 12.9% |  | 
19 | O=C(c1ccc2nccnc2c1)N1CCCCC1 [Ampalex] | 40.8% | 2.1 fold | 
20 | COc1ccc(C(=O)N2CCCC2=O)cc1 [Aniracetam] |  |  | Percentage of cell with nuclear Arc immunostaining above 2σ threshold [3]: 8.2%
21 | CN1[C@H]2C[C@H](OC(=O)[C@H](CO)c3ccccc3)C[C@@H]1[C@@H](O)C2 [Anisodamine] |  | 1.3 fold | Percentage of cell with nuclear Arc immunostaining above 2σ threshold: 25.5%
22 | CN1CC2c3ccccc3Oc3ccc(Cl)cc3C2C1 (stereo not drawn) [Asenapine] |  |  | Percentage of cell with nuclear Arc immunostaining above 2σ threshold [3]: 11.2%
23 | O=C(O)c1cccc(-c2noc(-c3ccccc3F)n2)c1 [Ataluren] | 38.6% | 2.0 fold | 
24 | CNCC[C@@H](Oc1ccccc1C)c1ccccc1 [Atomoxetine] | 17.6% |  | 
25 | CC(C)n1c(=O)n(C(=O)NC2CC3CCC(C2)N3C)c2ccccc21 (stereo not drawn) [BIMU-8] |  | -1.2 fold | Percentage of cell with nuclear Arc immunostaining above 2σ threshold: 16.3%
26 | NCC(CC(=O)O)c1ccc(Cl)cc1 (stereo not drawn) [Baclofen] | 28.6% | 1.5 fold | 
27 | O=C(O)[C@H]1O[C@@H](Oc2cc3oc(-c4ccccc4)cc(=O)c3c(O)c2O)[C@H](O)[C@@H](O)[C@@H]1O [Baicalin] | 34.6% | 1.8 fold | 
28 | O=C(CCCN1CCC(n2c(O)nc3ccccc32)CC1)c1ccc(F)cc1 [Benperidol] | 18.9% |  | 
